Laboratory results reported in patent publication US9427426B2 (priority 2008, dated 2016).

How the values were obtained:
[1] = test system: rats intoxicated with mercury (mercury chloride); assay: Example 1: erdosteine per os vs NAC per os in rats intoxicated with mercury; format: in vivo, Wistar rats; conditions: erdosteine 875 mg/kg or NAC 500 mg/kg per os once a day for 7 days
Protocol: 3. […] NAC has been mixed with bidistilled water, the resulting solution being administered in volume of 10 ml/kg.
4. […] Erdosteine has been mixed with bidistilled water and sodium hydrogen carbonate equimolar, the resulting solution being administered in volume of 10 ml/kg.
Mortality has been recorded. […] Few animals have been collected urine eliminated spontaneously for Pb—Hg analysis. Animals have been sacrificed under general anesthesia with ether. 6 animals of each group (3 males and 3 females) have been randomly selected for macroscopic and microscopic anatomic-pathological examination.

[2] = Example 2: erdosteine toxicity i.v. (lot 11); format: in vivo, Wistar rats; conditions: both sexes, Wistar, in vivo, iv, 3500 mg/kg; rat, i.v.; read-out: LD50 of i.v. form of erdosteine
From the text: (§1) These lots have been evaluated only for mortality.

rats [3] = assay: Example 2: erdosteine toxicity i.v. (lot 11); format: in vivo, Wistar rats; conditions: erdosteine 3500 mg/kg i.v. slowly; 10 animals, not metal intoxicated
From the text: as §1

rats [4] = assay: Example 3: evaluation of erdosteine formulation toxicity i.v. (lots 10-13); format: in vivo, Wistar rats; conditions: 10 animals
Protocol: Have been introduced 4 lot of 10 animals (5 males and 5 females) as follows: • Lot 10—intoxicated with 3500 mg/kg erdosteine i.v., 4.37 g erdosteine+1.48 g sodium hydrogen carbonate dissolved in 25 ml, administrated 2 ml/100 g of animal weight • Lot 11—intoxicated with 4000 mg/kg erdosteine i.v. as in lot 10, administrated 2.28 ml/100 g of animal weight • Lot 12—intoxicated with 4500 mg/kg erdosteine i.v. 4.5 g dissolved in 20 ml, administrated 2 ml/100 g of animal weight. Dissolution volume was choose in order to keep a similar injection volume. • Lot 13—intoxicated with 5500 mg/kg erdosteine i.v. as in lot 12, administrated 2.44 ml/100 g of animal weight Statistical Analysis
It has been evaluated toxicity of formula 350 mg erdosteine+118 mg sodium hydrogen carbonate (formula that has shown the best stability data).

[5] = test system: rats intoxicated with paracetamol; assay: Example 4: erdosteine i.v. vs NAC i.v. in rats intoxicated with paracetamol; format: in vivo, Wistar rats
From the text: Experiment has been carried on in parallel with experiment of example 3 and results of animals not intoxicated not treated (lot1) have been used as reference.
3. […] NAC has been dissolved in bidistilled water.
Animals have been monitored as described in example 3.
Mortality has been recorded.

[6] = test system: rats intoxicated with lead (lead acetate); assay: Example 5: erdosteine prophylaxis per os plus i.v. treatment in lead intoxication; format: in vivo, rats Wistar; design: RBC / ALT / Hct / MCH / Hb / WBC / Urea / Uric acid / AST: unit not given here
Protocol: The experiment has been structured for subjects that at a certain moment might be at higher risk to be intoxicated, for professional or other reasons. After intoxication the animals have been treated i.v.
Experiment has been carried out in parallel with example 3. Whatever not specified is identical with example 3.
Lot 14 One lot of 30 rats Wistar (15 males and 15 females) have been introduced in the experiment.
At day −2, day −1 and day 0 the animals have been administered 300 mg/kg erdosteine per os. At day 0, four hours after administration of erdosteine, the animals have been intoxicated with lead as described in example 3. After lead intoxications animals have been treated with erdosteine 350 mg/kg with the same protocol as described in example 3. […] Results have been compared with lot 2 since the experiments were carried out in parallel and results can be compared.

[7] = Hg intoxicated (mercury chloride 42 mg/kg per os), 30 animals/lot
[8] = survivors after 7 days, Hg intoxicated
[9] = 3500 mg/kg erdosteine i.v. (lot 10)
[10] = 4000 mg/kg erdosteine i.v. (lot 11)
[11] = 4500 mg/kg erdosteine i.v. (lot 12), solution not perfectly clear
[12] = 5500 mg/kg erdosteine i.v. (lot 13), solution not perfectly clear
[13] = paracetamol […] per os, erdosteine 350 mg/kg i.v. or NAC 114 mg/kg i.v. once a day for 7 days, 30 animals/lot
[14] = paracetamol intoxicated, erdosteine 350 mg/kg i.v. or NAC 114 mg/kg i.v., 7 days
[15] = survivors at 7 days, paracetamol intoxicated, erdosteine 350 mg/kg i.v. or NAC 114 mg/kg i.v.
[16] = lot 14: erdosteine 300 mg/kg per os at day -2, -1, 0, then lead acetate 4665 mg/kg per os and erdosteine 350 mg/kg i.v. once a day for 7 days, 30 rats
[17] = lot 14 survivors day 7, prophylaxis per os + Pb intoxication + erdosteine 350 mg/kg i.v.
[18] = lot 14 day 0 before intoxication, after erdosteine 300 mg/kg per os at day -2, -1, 0

SMILES: O=C(O)CSCC(=O)NC1CCSC1=O (stereo not drawn) [erdosteine, Erdosteine]
- Mortality in percent [1, 7]: 16.6%
- Mortality total [1, 7]: 5^1
- Anatomical pathology: lesions (macroscopic and microscopic examination) ([1]; Hg intoxicated): less important lesions
- Hg in urine mean values ([1]; Hg intoxicated, GS MS Varian 4100): 14.7 mg/L
- Creatinine mean values [1, 8]: 0.47 ^1, 2 mK/dl
- Haematocrit mean values [1, 8]: 38.58^3
- Haemoglobin mean values [1, 8]: 13.75^3 g/dl
- Leucocytes mean values [1, 8]: 7.81^3
- Urea mean values [1, 8]: 49.18 ^1, 2 mg/dl
- Uric acid mean value [1, 8]: 2.40 ^1 mg/dl
- erythrocytes mean values [1, 8]: 6.81^3 *10^6/mm^3
- LD50 [2]: > 3500 mg/kg
- Mortalitaty total (rats [3]): 1/10
- Mortality in percent (rats [3]): 10%
- Mortality % (rats [4]; [9]): 10%
- Total mortality (rats [4]; [9]): 1/10
- Mortality % (rats [4]; [10]): 40%
- Total mortality (rats [4]; [10]): 4/10
- Mortality % (rats [4]; [11]): 70%
- Total mortality (rats [4]; [11]): 7/10
- Mortality % (rats [4]; [12]): 100%
- Total mortality (rats [4]; [12]): 10/10
- Mortality percentual [5, 13]: 27%
- Total mortality [5, 13]: 8/30
- Renal aggression (urine summary), in words ([5]; paracetamol intoxicated, erdosteine 350 mg/kg i.v. or NAC 114 mg/kg i.v.): antagonized
- Urine summary: Bil. [5, 14]: 1 mg/dL
- Urine summary: Chet [5, 14]: neg
- Urine summary: Density [5, 14]: 1020
- Urine summary: Erythrocyte [5, 14]: 25 µL⁻¹
- Urine summary: Glucose [5, 14]: neg
- Urine summary: Leuc [5, 14]: 10 µL⁻¹
- Urine summary: Prot. [5, 14]: 50 mg/dL
- Urine summary: UBG [5, 14]: 1 mg/dL
- Urine summary: pH [5, 14]: 7
- ALT [5, 15]: 165.4^2,3
- AST [5, 15]: 45.2^2
- HCT [5, 15]: 42.9^1
- PLT [5, 15]: 749.8^2,3
- RBC [5, 15]: 7.45^1
- Urea [5, 15]: 55.2^2,3
- Uric acid [5, 15]: 1.934^2,3
- Mortality % [6, 16]: 20%
- Total mortality [6, 16]: 6/30 ^2
- ALT [6, 17]: 165.4^1,2
- AST [6, 17]: 48.9^1,2
- Hb [6, 17]: 17.12
- Hct [6, 17]: 43.81
- MCH [6, 17]: 23.12
- PLT [6, 17]: 605
- RBC [6, 17]: 7.446
- Urea [6, 17]: 62.2^1,2
- Uric acid [6, 17]: 2.71
- WBC [6, 17]: 6.98
- ALT [6, 18]: 166.2
- AST [6, 18]: 36.2
- Hb [6, 18]: 19.96
- Hct [6, 18]: 47.45
- MCH [6, 18]: 25.12
- PLT [6, 18]: 793
- RBC [6, 18]: 7.93
- Urea [6, 18]: 54.86
- Uric acid [6, 18]: 1.95
- WBC [6, 18]: 4.90
